{"source": "patent EP0651055A2", "about": "(priority 1993, dated 1995)", "key": {"[1]": {"molecular_target": "T1, recombinant human acetylcholinesterase (HuAChE), wild type (Homo sapiens, UniProt P22303)", "T1 sequence (P22303 32-614)": "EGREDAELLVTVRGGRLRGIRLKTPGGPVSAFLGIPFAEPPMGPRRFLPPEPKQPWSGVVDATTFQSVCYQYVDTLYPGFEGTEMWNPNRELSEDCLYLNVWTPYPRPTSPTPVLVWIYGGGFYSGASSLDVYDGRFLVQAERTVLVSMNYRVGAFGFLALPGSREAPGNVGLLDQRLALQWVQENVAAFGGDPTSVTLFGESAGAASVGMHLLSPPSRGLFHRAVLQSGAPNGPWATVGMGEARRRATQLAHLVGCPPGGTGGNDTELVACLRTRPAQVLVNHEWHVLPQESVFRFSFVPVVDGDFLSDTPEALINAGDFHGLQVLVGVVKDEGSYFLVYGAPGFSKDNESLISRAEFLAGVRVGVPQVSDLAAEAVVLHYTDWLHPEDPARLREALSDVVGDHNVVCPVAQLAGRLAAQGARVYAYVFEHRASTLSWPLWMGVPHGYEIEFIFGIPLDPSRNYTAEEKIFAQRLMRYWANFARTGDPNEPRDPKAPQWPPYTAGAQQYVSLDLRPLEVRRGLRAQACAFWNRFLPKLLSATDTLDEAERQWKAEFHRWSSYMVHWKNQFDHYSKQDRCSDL", "details": "read-out: Km (ATC); pH 8"}, "[2]": {"molecular_target": "T1, recombinant human acetylcholinesterase (HuAChE), wild type", "assay_type": "biochemical"}, "[3]": {"molecular_target": "recombinant HuAChE mutant Phe338Ala (Homo sapiens, UniProt P22303, F369A)", "sequence (P22303 32-614 F369A limits assumed)": "as the sequence (P22303 32-614) above, with F338A counted along it", "assay_type": "biochemical"}, "[4]": {"molecular_target": "recombinant HuAChE mutant Glu450Ala (Homo sapiens, UniProt P22303, E481A)", "sequence (P22303 32-614 E481A limits assumed)": "as the sequence (P22303 32-614) above, with E450A counted along it", "assay_type": "biochemical"}, "[5]": {"molecular_target": "recombinant HuAChE mutant Tyr337Ala (Homo sapiens, UniProt P22303, Y368A)", "sequence (P22303 32-614 Y368A limits assumed)": "as the sequence (P22303 32-614) above, with Y337A counted along it", "assay_type": "biochemical"}, "[6]": {"molecular_target": "recombinant HuAChE mutant Glu202Gln (Homo sapiens, UniProt P22303, E233Q)", "sequence (P22303 32-614 E233Q limits assumed)": "as the sequence (P22303 32-614) above, with E202Q counted along it", "assay_type": "biochemical"}, "[7]": {"test_system": "CC(=O)SCC[N+](C)(C)C", "experiment": "purified protein, by the assay type", "details": "other: Tyr133Ala, sodium-phosphate buffer pH 8, 27°C"}, "[8]": {"test_system": "CC(=O)SCCC(C)(C)C", "experiment": "purified protein, by the assay type", "details": "pH 8.0; 27.0 °C"}}, "data": [{"compound": "CC(=O)SCC[N+](C)(C)C.[I-]", "note": "[ATC, Acetylthiocholine iodide]", "values": [{"measurement": "Km", "setting": "[1]", "result": "130 ± 15", "unit": "µM"}]}, {"compound": "CCOP(=O)(OCC)Oc1ccc([N+](=O)[O-])cc1", "note": "[paraoxon]", "values": [{"measurement": "ki (paraoxon) relative to the wild type", "setting": "[2]", "result": "97 ±16 (1.00)"}, {"measurement": "ki (paraoxon) relative to the wild type", "setting": "[3]", "result": "7.1±0.6 (0.07)"}, {"measurement": "ki, rate constant of phosphylation (paraoxon)", "setting": "[3]; acetylcholinesterase", "result": "7.1±0.6 (0.07) x 10^-4.M^-1.min^-1"}, {"measurement": "ki (paraoxon) relative to the wild type", "setting": "[4]", "result": "1.9±0.7 (0.02)"}, {"measurement": "ki (paraoxon) relative to the wild type", "setting": "[5]", "result": "14.4±1.4 (0.15)"}, {"measurement": "ki, rate constant of phosphylation (paraoxon)", "setting": "[5]; acetylcholinesterase", "result": "14.4±1.4 (0.15) x 10^-4.M^-1.min^-1"}, {"measurement": "ki (paraoxon) relative to the wild type", "setting": "[6]", "result": "2.8±0.48(0.03)"}, {"measurement": "ki, rate constant of phosphylation (paraoxon)", "setting": "[6]; acetylcholinesterase", "result": "2.8±0.48(0.03) x 10^-4.M^-1.min^-1"}]}, {"compound": "recombinant HuAChE mutant Tyr133Ala (Homo sapiens; Y164A)", "values": [{"measurement": "Km", "setting": "[7]", "result": 5750, "unit": "µM"}]}, {"compound": "recombinant human acetylcholinesterase (HuAChE), wild type (Homo sapiens)", "values": [{"measurement": "Km", "setting": "[8]", "result": "280 ± 80", "unit": "µM"}]}]}
